Structures are written as SMILES. Activity calls are given as the source filed them. The calls are words filed in the database; no cut-off is given here. Where a SMILES comes first, the peptide text is derived from it. The star is where a group is joined. Cbz = O=C(OCc1ccccc1)*; CH2F = FC*

Here are results for twelve compounds from ChEMBL document CHEMBL5634189, “Synthesis and in Vitro Evaluation of CAPE Derivatives as Ferroptosis Inducers in Triple Negative Breast Cancer” (ACS Med Chem Lett, 2024).

Experiment [1] addresses T1, Heme oxygenase 1 (Homo sapiens) (UniProt P09601).
T1 sequence (whole entry): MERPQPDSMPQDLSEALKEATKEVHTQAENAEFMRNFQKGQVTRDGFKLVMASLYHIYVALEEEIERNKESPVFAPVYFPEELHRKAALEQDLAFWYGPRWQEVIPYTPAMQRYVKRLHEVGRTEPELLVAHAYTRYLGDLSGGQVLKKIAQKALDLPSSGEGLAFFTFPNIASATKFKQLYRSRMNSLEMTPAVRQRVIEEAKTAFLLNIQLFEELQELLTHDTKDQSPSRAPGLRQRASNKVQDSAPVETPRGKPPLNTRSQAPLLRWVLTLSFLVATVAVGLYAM
The experiment is described as follows: Induction of HO-1 enzymatic activity in human MDA-MB-231 cells assessed as increase in bilirubin formation at 10 uM incubated for 18 hrs in presence of NADPH by double-beam spectrophotometer analysis. It is filed as cell-based. Conditions: filed as activator.

Experiment [2] relates to MDA-MB-231. The experiment is described as follows: Induction of ferroptosis in human MDA-MB-231 cells assessed as reduction in cell viability at 10 to 50 uM incubated for 24 hrs by MTT assay. It is filed as functional, cell-based. Conditions: dose 10-50 µM.
For experiment [3], the system named is MDA-MB-231. Briefly: Cytotoxicity against human MDA-MB-231 cells assessed as reduction in cell viability at 50 uM incubated for 48 hrs by MTT assay. It is filed as functional, cell-based. A general note: Tetrazolium assays rely on reduction of a dye to a coloured formazan, in cell work by metabolically active cells.
The test system of experiment [4] is MDA-MB-231. The experiment is described as follows: Induction of ferroptosis in human MDA-MB-231 cells assessed as reduction in cell viability at 50 uM incubated for 48 hrs in presence of ferrostatin-1 by MTT assay. It is filed as functional, cell-based.
Experiment [5] relates to MDA-MB-231. The experiment is described as follows: Cytotoxicity against human MDA-MB-231 cells assessed as reduction in cell viability at 50 uM incubated for 48 hrs in presence of Z-VAD-FMK by MTT assay. It is filed as functional, cell-based.
Experiment [6] concerns MDA-MB-231. Briefly: Induction of ferroptosis in human MDA-MB-231 cells assessed as increase IL-6 level at 50 uM incubated for 5 to 18 hrs by ELISA analysis. Conditions: time 5-18 hrs. The format is functional, cell-based. (In an ELISA, binding on a coated surface is turned into a signal by an enzyme label.)
Experiment [7] concerns MDA-MB-231. Briefly: Induction of ferroptosis in human MDA-MB-231 cells assessed as decrease in GSH content at 10 to 50 uM incubated for 24 hrs by spectrophotometric assay. Conditions: dose 10-50 µM. It is filed as functional, cell-based.
The subject of experiment [8] is MDA-MB-231. Briefly: Induction of ferroptosis in human MDA-MB-231 cells assessed as increase in intracellular Fe2+ level at 10 to 50 uM incubated for 18 hrs by colorimetric assay. The format is functional, cell-based. Conditions: dose 10-50 µM.
The test system of experiment [9] is MDA-MB-231. Briefly: Cytotoxicity against human MDA-MB-231 cells assessed as reduction in cell viability at 50 uM incubated for 48 hrs in presence of ferrostatin-1 by MTT assay. The format is functional, cell-based.
In experiment [10] the test system is MDA-MB-231. Briefly: Induction of ferroptosis in human MDA-MB-231 cells assessed as reduction in GSH content at 50 uM incubated for 20 mins in presence of ferrostatin-1 by spectrophotometric assay. It is filed as functional, cell-based.
Experiment [11] has as its system MDA-MB-231. Briefly: Induction of ferroptosis in human MDA-MB-231 cells assessed as effect on IL-6 level at 50 uM incubated for 5 to 18 hrs in presence of ferrostatin-1 by ELISA analysis. The format is functional, cell-based. Conditions: time 5-18 hrs.
Experiment [12] relates to Cell membrane. The experiment is described as follows: Induction of mitochondrial membrane dysfunction in human MDA-MB-231 cells assessed as increase in green fluorescence intensity incubated for 6 hrs by JC-1 staining based fluorescence microscopic analysis. The format is cell membranes.
The subject of experiment [13] is MDA-MB-231. The experiment is described as follows: Induction of ferroptosis in human MDA-MB-231 cells assessed as increase in lipid hydroperoxide level at 50 uM incubated for 30 mins in presence of ferrostatin-1. The format is functional, cell-based.
In experiment [14] the test system is MDA-MB-231. Briefly: Upregulation of HO-1 expression in human MDA-MB-231 cells at 10 uM incubated for 18 hrs by ELISA analysis. The format is functional, cell-based.
In experiment [15] the test system is Cell membrane. Briefly: Induction of mitochondrial membrane dysfunction in human MDA-MB-231 cells assessed as decrease in red fluorescence intensity incubated for 6 hrs by JC-1 staining based fluorescence microscopic analysis. The format is cell membranes.
For experiment [16], the system named is MDA-MB-231. Briefly: Induction of ROS production in human MDA-MB-231 cells assessed as increase in fluorescence intensity measured for 1 to 6 hrs. The format is functional, cell-based. Conditions: time 1-6 hrs.

With `COc1ccc(CCOC(=O)/C=C/c2ccc(O)c(O)c2)c(OC)c1`, the result in experiment [1] and in [2] was Active.

For the compound `CC(C)[C@H](NC(=O)OCc1ccccc1)C(=O)N[C@@H](C)C(=O)N[C@@H](CC(=O)O)C(=O)CF` (Cbz-Val-Ala-Asp-CH2F), the outcome in experiment [3] was Active.

On to `COc1ccc(CCOC(=O)/C=C/c2ccc(O)c(O)c2)cc1OC`, for which the result in experiment [1], in experiment [2] and in [4] was Active.

With `COc1cc(CCOC(=O)/C=C/c2ccc(O)c(O)c2)cc(OC)c1`, the result in [1], in experiment [2] and in experiment [4] was Active.

As for `CCOC(=O)c1ccc(NC2CCCCC2)c(N)c1`, in experiment [3], the outcome was Active.

Consider `O=C(/C=C/c1ccc(O)c(O)c1)OCCc1ccccc1`, for which the outcome in experiment [3], in experiment [1], in [5], in experiment [6], in [7] and in experiment [8] was Active. For the same compound, the outcome in [9] was Active.

Regarding `O=C(/C=C/c1ccc(O)c(O)c1)OCCc1c[nH]c2ccccc12`, the result in experiment [1] and in experiment [2] was Active.

Regarding `COc1ccc(OC)c(CCOC(=O)/C=C/c2ccc(O)c(O)c2)c1`, the result in experiment [1] and in experiment [2] was Active.

Turning to `COc1ccc(CCOC(=O)/C=C/c2ccc(O)c(O)c2)cc1`, the outcome in [1] and in [2] was Active.

For `COc1ccc(CCOC(=O)/C=C/c2ccccc2)cc1OC`, the outcome in experiment [1] and in experiment [2] was Active.

Consider `O=C(/C=C/c1ccccc1)OCCc1c[nH]c2ccccc12`, for which the outcome in [1], in experiment [10], in experiment [2], in experiment [4], in experiment [12] and in experiment [13] was Active. The outcome in [14], in [15] and in [16] was Active. Besides, the result in experiment [11] was inactive.

For the compound `O=C(/C=C/c1ccc(O)c(O)c1)OCCc1ccc2c(c1)OCO2`, the result in experiment [1] and in [2] was Active.
